From patent US7192981B2, “3,4-dihydroxyhydrocinnamic acid derivative” (Bionutrigen Co., Ltd., priority 2005, dated 2007)

Experiments:
[1] = system: STZ-induced diabetic C57BL/6 mice; experiment: Blood glucose and glucose tolerance test in STZ-induced diabetic mice; format: in vivo, mouse; conditions: 150 mg/kg i.p. daily, at 2 weeks after treatment
From the text: (§1) Male C57BL/6 and C57BL/6 ob/ob mice were purchased from The Jackson Laboratory (Bar Harbor, Me.), and Sprague-Dawley (SD) rats were purchased from Charles River Laboratories (Wilmington, Mass.). The animals were maintained and bred under specific pathogen-free conditions and provided with sterile food and water ad libitum at the Animal Resources Centre, Faculty of Medicine, University of Calgary. The use and care of the animals used in this study were approved by the Animal Care Committee, Faculty of Medicine, University of Calgary.
DHH105 was dissolved in DMSO and emulsified in olive oil (1:50 v/v). DHH105, at a dose of 150 mg/kg body weight (b.w.) in 100 μl, was injected intraperitoneally (i.p.) every day into diabetic ob/ob mice (blood glucose level>230 mg/dl) and STZ-treated diabetic C57BL/6 mice (blood glucose level>300 mg/dl). Control mice received the same amount of olive oil without DHH105. Blood glucose levels were measured with a glucometer (One Touch Ultra, Lifescan, Milpitas, Calif.) every morning between 9:00–10:00 a.m. just before injection of DHH105.
(§2) To determine whether treatment with DHH105 can decrease the blood glucose level in STZ-induced diabetic C57BL/6 mice (blood glucose levels>300 mg/dl), mice were treated with DHH105 (150 mg/kd) daily for 2 weeks. […] Blood glucose levels were measured at 0, 15, 30, 60, and 120 min after glucose injection.

diabetic ob/ob mice = experiment: Blood glucose and glucose tolerance test in diabetic ob/ob mice; format: in vivo, mouse
From the text: as §1
DHH105 was dissolved in DMSO and emulsified in olive oil (1:50 v/v). […] Blood glucose levels were measured with a glucometer (One Touch Ultra, Lifescan, Milpitas, Calif.) every morning between 9:00–10:00 a.m. just before injection of DHH105.
as §2
The blood glucose lowering effect was further determined in ob/ob mice, a model of type 2 diabetes. […]

[2] = system: isolated rat epididymal adipocytes; experiment: Glucose transport assay (2-DOG uptake); format: cell-based
IRS-1 = experiment: Phosphorylation of IRS-1 in adipose tissue of treated diabetic mice; format: in vivo, mouse; conditions: 2 weeks of DHH105 treatment
Procedure: Adipocytes treated with DHH105 for 2 h or insulin for 10 min were homogenized in 5 ml lysis buffer (20 mM Tris, pH 7.4, 1% SDS, 10% glycerol, 150 mM NaCl, 2 mM EDTA, 20 mM NaF, 1 mM NaVO4, 2 mM sodium pyrophosphate, protease inhibitor cocktail, and phosphatase inhibitor cocktail) with a teflon pestle (15 strokes). Homogenized adipocytes were sonicated for 3 min and solubilized for 30 min. The homogenate was centrifuged at 3,000 g for 10 min at 4° C. The protein concentration of the lysate was determined by the Bradford method. After dilution (1 μg/μl protein concentration), the lysates were incubated with anti-insulin receptor-β (IR-β) antibody (Upstate Biotech, Charlottesville, Va.) or anti-IRS-1 antibody (Upstate Biotech) overnight at 4° C. Protein A Sepharose beads (100 μl, Amersham Pharmacia Biotech) were added and the mixture was gently rocked for 2 h at 4° C. […] The membranes were washed and the immunoreactive proteins were detected with an enhanced chemoluminescence western blot detection kit (Amersham Pharmacia Biotech). To examine whether in vivo treatment of STZ-induced diabetic C57BL/6 mice or ob/ob mice with DHH105 also increases phosphorylation of IR-β, and IRS-1, fat tissue was removed from the mice after 2 weeks of DHH105 treatment and phosphorylation of IR-β and IRS-1 was measured by immunoprecipitation and western blot.

PI3-kinase = PI3-kinase assay in adipocyte lysate; format: cell-based, rat; conditions: adipocytes, 500 μM, 2 h
Procedure: Phosphatidylinositide (PI) in DMSO (1 mg/ml) was mixed with an equal volume of buffer A (10 mM HEPES, 100 mM NaCl, 1 mM EGTA, 0.03% NP-40, pH 7.0) and then 10 μl was mixed with an equal volume of buffer B (500 μM [γ-^32P] ATP (10 μCi; Amersham Pharmacia Biotech), 25 mM MgCl2, 15 mM 2-(N-morpholine)ethansulfonic acid, pH 6.8). This mixture was added to 30 μl of adipocyte lysate and incubated for 5 min at room temperature. The kinase reaction was stopped by adding 80 μl of 1 N HCl. A mixture of chloroform and ethanol (1:1, 160 μl) was added to the reaction mixture followed by centrifugation at full speed in a microcentrifuge for 2 min, and 40 μl of the organic phase was extracted. The organic phase was spotted on aluminum-backed silica gel 60 thin layer chromatography (TLC) plates that were pre-soaked in developing solvent (chloroform:methanol:2.2 M NH4OH, 9:7:2), run for 3 h in a TLC chamber with the developing solvent, and air-dried. The amount of phosphoinositides was detected by autoradiography.
In FIG. 7A, the intensity of the PIP3 band was normalized with that of PI, and the relative amount of PIP3 was calculated by (normalized band intensity of sample)/(normalized band intensity of control) (lower panel). Data are means±SEM of three independent experiments.

[3] = 500 μM, 4 h, 2-DOG 0.125 to 10.0 mM, Lineweaver-Burk

- PI3-kinase activity (conversion of PI to PIP3) (PI3-kinase): significantly increased
SMILES: O=C(CCc1ccc(O)c(O)c1)OCc1cccc2ccccc12 [DHH105, 3,4-dihydroxyhydrocinnamic acid naphthalene methyl ester]
- blood glucose levels [1]: significantly decreased
- time after first injection at which blood glucose levels began to decrease (diabetic ob/ob mice; 150 mg/kg i.p. daily): 4 days
- blood glucose levels vs vehicle-treated control mice (diabetic ob/ob mice; 150 mg/kg i.p. daily for 2 weeks): significantly lower
- effect on insulin-stimulated glucose transport ([2]; 500 μM DHH105 3.5 h, then insulin 30 min): did not influence
- Km value, DHH105-treated vs control adipocytes ([2]; 500 μM, 4 h): no difference
- Km [2, 3]: 1780 ± 380 µM
- Vmax of glucose transport [2, 3]: 17.14±0.25 mmol/3 min
- Vmax of glucose transport relative to untreated control adipocytes ([2]; 500 μM, 4 h, Lineweaver-Burk): 3 fold
- incubation time from which 2-DOG uptake was increased ([2]; rat adipocytes, 500 μM): 1 h
- increase of glucose transport vs untreated control at optimum concentration ([2]; rat adipocytes, 4 h, DHH105 500 μM, glyburide 25 μM, metformin 250 μM, troglitazone 100 μM): 4 fold
- concentration at which 2-DOG uptake peaked ([2]; rat adipocytes, 4 h treatment): 500 µM
- effect on glucose transport compared with other anti-diabetic drugs ([2]; rat adipocytes, doses of 500 μM or more): significantly higher effect
- phosphorylation of IRS-1 in adipose tissue (IRS-1; STZ-induced diabetic C57BL/6 mice): increased
- phosphorylation of IRS-1 in adipose tissue (IRS-1; ob/ob mice): increased
